Test results as given in patent publication EP2033515A1, “Method for improved utilisation of the production potential of transgenic plants” (Bayer CropScience AG, priority 2007, dated 2009).

Experiment: logP determination by reversed-phase HPLC (EEC Directive 79/831 Annex V.A8)
Description: Die Messung der logP Werte erfolgte gemäß EEC Directive 79/831 Annex V.A8 durch HPLC (High Performance Liquid Chromatography) an reverser Phase Säulen (C 18), mit nachfolgenden Methoden: • ^[a] Die Bestimmung erfolgt bei pH 2.3 mit 0,1% wässriger Phosphorsäure und Acetonitril als Eluenten (linearer Gradient von 10 bis 95% Acetonitril). • ^[b] Die Bestimmung erfolgt mit LC-MS bei pH 2,7 mit 0,1 % wässriger Ameisensäure und Acetonitril als Eluenten (linearer Gradient von 10% bis 95% Acetonitril). • ^[c] Die Bestimmung erfolgt mit LC-MS bei pH 7,8 mit 0,001 M wässriger Ammoniumhydrogencarbonat-Lösung und Acetonitril als Eluenten (linearer Gradient von 10 % bis 95 % Acetonitril).
Die Eichung erfolgt mit unverzweigten Alkan-2-onen (mit 3 bis 16 Kohlenstoffatomen), deren logP-Werte bekannt sind (Bestimmung der logP-Werte anhand der Retentionszeiten durch lineare Interpolation zwischen zwei aufeinander folgenden Alkanonen). Die lambda-maX-Werte wurden an Hand der UV-Spektren von 200 bis 400 nm in den Absorptionsmaxima ermittelt.

[1] = aqueous ammonium hydrogen carbonate/acetonitrile, pH 7.8
[2] = method [a]: pH 2.3, 0,1% aqueous phosphoric acid and acetonitrile, linear gradient 10 to 95% acetonitrile
[3] = 0.1% aqueous phosphoric acid/acetonitrile, pH 2.3
[4] = method [c]: LC-MS, pH 7,8, 0,001 M aqueous ammonium hydrogen carbonate and acetonitrile, linear gradient 10 % to 95 % acetonitrile

| SMILES | log p [2] | log p [4] | also measured |
| --- | --- | --- | --- |
| Cc1cc(C(F)(C(F)(F)F)C(F)(F)F)ccc1NC(=O)c1cccc(I)c1C(=O)N[C@@H](C)CS(C)(=O)=O [compound 1] | 3,18 |  | chromatographic logP [1]: 3.2 |
| Cc1c(NC(=O)c2cccc(I)c2C(=O)N[C@@H](C)C[S+](C)[O-])ccc(C(F)(C(F)(F)F)C(F)(F)F)c1F (stereo partly shown) [compound 8] | 2,78^[a] |  |  |
| CC[S+]([O-])C[C@H](C)NC(=O)c1c(I)cccc1C(=O)Nc1ccc(C(F)(C(F)(F)F)C(F)(F)F)c(F)c1C (stereo partly shown) [compound 9] | 2,97^[a] |  |  |
| CSC[C@H](C)NC(=O)c1c(Cl)cccc1C(=O)Nc1ccc(C(F)(F)C(F)(F)F)c(F)c1C [compound 11] |  |  | log p (method [b]: LC-MS, pH 2,7, 0,1 % aqueous formic acid and acetonitrile, linear gradient 10% to 95% acetonitrile): 3,94^[b] |
| CCS(=O)(=O)C[C@H](C)NC(=O)c1c(Cl)cccc1C(=O)Nc1ccc(C(F)(F)C(F)(F)F)c(Cl)c1C [compound 12] | 3,14^[a] |  |  |
| Cc1c(NC(=O)c2cccc(Cl)c2C(=O)N[C@@H](C)CS(C)(=O)=O)ccc(C(F)(F)C(F)(F)F)c1F [compound 13] | 2,82^[a] |  |  |
| CCS(=O)(=O)C[C@H](C)NC(=O)c1c(Cl)cccc1C(=O)Nc1ccc(C(F)(F)C(F)(F)F)c(F)c1C [compound 14] | 3,01^[a] |  |  |
| CSC[C@H](C)NC(=O)c1c(Br)cccc1C(=O)Nc1ccc(C(F)(F)C(F)(F)F)c(F)c1C [compound 15] | 3,93^[a] |  |  |
| Cc1c(NC(=O)c2cccc(Br)c2C(=O)N[C@@H](C)CS(C)(=O)=O)ccc(C(F)(F)C(F)(F)F)c1F [compound 16] | 2,86^[a] |  |  |
| CSC[C@H](C)NC(=O)c1c(Br)cccc1C(=O)Nc1ccc(C(F)(C(F)(F)F)C(F)(F)F)c(F)c1C [compound 17] | 4,31^[a] |  |  |
| CCSC[C@H](C)NC(=O)c1c(I)cccc1C(=O)Nc1ccc(C(F)(C(F)(F)F)C(F)(F)F)c(F)c1C [compound 19] | 4,71^[a] |  |  |
| CCS(=O)(=O)C[C@H](C)NC(=O)c1c(I)cccc1C(=O)Nc1ccc(C(F)(C(F)(F)F)C(F)(F)F)c(F)c1C [compound 21] | 3,47^[a] |  |  |
| CCS(=O)(=O)C[C@H](C)NC(=O)c1c(Br)cccc1C(=O)Nc1ccc(C(F)(F)C(F)(F)F)c(Cl)c1C [compound 22] | 3,19^[a] |  |  |
| CSC[C@H](C)NC(=O)c1c(I)cccc1C(=O)Nc1ccc(C(F)(F)C(F)(F)F)c(F)c1C [compound 23] | 4,04^[a] |  |  |
| Cc1c(NC(=O)c2cccc(I)c2C(=O)N[C@@H](C)CS(C)(=O)=O)ccc(C(F)(F)C(F)(F)F)c1F [compound 24] | 2,97^[a] |  |  |
| CSC[C@H](C)NC(=O)c1c(I)cccc1C(=O)Nc1ccc(C(F)(C(F)(F)F)C(F)(F)F)c(F)c1C [compound 25] | 4,41^[a] |  |  |
| CSC[C@H](C)NC(=O)c1c(I)cccc1C(=O)Nc1ccc(C(F)(F)C(F)(F)F)c(Cl)c1C [compound 26] | 4,2^[a] |  |  |
| Cc1c(NC(=O)c2cccc(I)c2C(=O)N[C@@H](C)CS(C)(=O)=O)ccc(C(F)(C(F)(F)F)C(F)(F)F)c1F [compound 27] | 3,27^[a] |  |  |
| CSC[C@H](C)NC(=O)c1c(Br)cccc1C(=O)Nc1ccc(C(F)(C(F)F)C(F)(F)F)cc1Br (stereo partly shown) [compound 29] | 3,81^[a] |  |  |
| CCS(=O)(=O)C[C@H](C)NC(=O)c1c(Br)cccc1C(=O)Nc1ccc(C(F)(C(F)F)C(F)(F)F)cc1Br (stereo partly shown) [compound 30] |  |  | chromatographic logP [3]: 3.06 |
| Cc1c(NC(=O)c2cccc(I)c2C(=O)N[C@@H](C)C[S+](C)[O-])ccc(C(F)(F)C(F)(F)F)c1F (stereo partly shown) [compound 31] | 2,5^[a] |  |  |

| SMILES | log p [2] | log p [4] | also measured |
| --- | --- | --- | --- |
| CCSC[C@H](C)NC(=O)c1c(I)cccc1C(=O)Nc1ccc(C(F)(C(F)(F)F)C(F)(F)Br)cc1C (stereo partly shown) [compound 32] | 4,68 |  |  |
| CCSC[C@H](C)NC(=O)c1c(I)cccc1C(=O)Nc1ccc(C(F)(C(F)F)C(F)(F)F)cc1C (stereo partly shown) [compound 33] | 3,96^[a] 3,96^[c] | 3,96^[a] 3,96^[c] |  |
| CCSC[C@H](C)NC(=O)c1c(I)cccc1C(=O)Nc1ccc(C(F)(C(F)F)C(F)(F)F)cc1Cl (stereo partly shown) [compound 34] |  |  | chromatographic logP [3]: 4.2; chromatographic logP [1]: 4.2 |
| CCSC[C@H](C)NC(=O)c1c(I)cccc1C(=O)Nc1ccc(C(C(F)F)C(F)(F)F)cc1C (stereo partly shown) [compound 35] | 3,63 | 3,62 |  |
| CSC[C@H](C)NC(=O)c1c(I)cccc1C(=O)Nc1ccc(C(C(F)F)C(F)(F)F)cc1Br (stereo partly shown) [compound 37] | 3,51 | 3,54 |  |
| CCSC[C@H](C)NC(=O)c1c(I)cccc1C(=O)Nc1ccc(C(C(F)F)C(F)(F)F)cc1Cl (stereo partly shown) [compound 38] | 3,76 | 3,79 |  |
| CCSC[C@H](C)NC(=O)c1c(I)cccc1C(=O)Nc1ccc(C(C(F)F)C(F)(F)F)cc1Br (stereo partly shown) [compound 39] | 3,78 |  | chromatographic logP [1]: 3.8 |
| CCSC[C@H](C)NC(=O)c1c(I)cccc1C(=O)Nc1ccc(C(C(F)F)C(F)(F)F)cc1F (stereo partly shown) [compound 40] | 3,57^[a] 3,57^[c] | 3,57^[a] 3,57^[c] |  |
| CCS(=O)(=O)C[C@H](C)NC(=O)c1c(I)cccc1C(=O)Nc1ccc(C(F)(C(F)F)C(F)(F)F)cc1Cl (stereo partly shown) [compound 41] | 3,12 | 3,18 |  |
| C[C@@H](CS(C)(=O)=O)NC(=O)c1c(I)cccc1C(=O)Nc1ccc(C(C(F)F)C(F)(F)F)cc1Cl (stereo partly shown) [compound 42] | 2,69 | 2,72 |  |
| C[C@@H](CS(C)(=O)=O)NC(=O)c1c(I)cccc1C(=O)Nc1ccc(C(C(F)F)C(F)(F)F)cc1Br (stereo partly shown) [compound 43] | 2,71 | 2,76 |  |
| C[C@@H](CS(C)(=O)=O)NC(=O)c1c(I)cccc1C(=O)Nc1ccc(C(F)(C(F)F)C(F)(F)F)cc1F (stereo partly shown) [compound 44] | 2,72 | 2,76 |  |
| C[C@@H](CS(C)(=O)=O)NC(=O)c1c(I)cccc1C(=O)Nc1ccc(C(C(F)F)C(F)(F)F)cc1F (stereo partly shown) [compound 45] |  | 2,54 | chromatographic logP (pH 2.3): 2.5 |
| CCS(=O)(=O)C[C@H](C)NC(=O)c1c(I)cccc1C(=O)Nc1ccc(C(C(F)F)C(F)(F)F)cc1Br (stereo partly shown) [compound 46] | 2,87 | 2,92 |  |
| CCS(=O)(=O)C[C@H](C)NC(=O)c1c(I)cccc1C(=O)Nc1ccc(C(F)(C(F)F)C(F)(F)F)cc1F (stereo partly shown) [compound 47] | 2,89 | 2,94 |  |
| CCS(=O)(=O)C[C@H](C)NC(=O)c1c(I)cccc1C(=O)Nc1ccc(C(C(F)F)C(F)(F)F)cc1F (stereo partly shown) [compound 48] | 2,65 | 2,69 |  |
| Cc1cc(C(F)(C(F)F)C(F)(F)F)ccc1NC(=O)c1cccc(Cl)c1C(=O)N[C@@H](C)CS(C)(=O)=O (stereo partly shown) [compound 49] | 2,61 | 2,64 |  |
| Cc1c(NC(=O)c2cccc(Cl)c2C(=O)N[C@@H](C)C[S+](C)[O-])ccc(C(C(F)(F)F)C(F)(F)F)c1F (stereo partly shown) [compound 51] |  | 2,41 | chromatographic logP (pH 2.3): 2.5 |
| Cc1cc(C(C(F)(F)F)C(F)(F)F)c(F)cc1NC(=O)c1cccc(Cl)c1C(=O)N[C@@H](C)C[S+](C)[O-] (stereo partly shown) [compound 52] | 2,58 | 2,51 |  |
| Cc1cc(C(C(F)(F)F)C(F)(F)F)c(F)cc1NC(=O)c1cccc(Br)c1C(=O)N[C@@H](C)C[S+](C)[O-] (stereo partly shown) [compound 53] | 2,58 | 2,51 |  |
